Reference: the supplement of paper PMC10307832

What was measured:
Assay in all cases: relative viability (nuclei count vs DMSO), 5 days (fraction); higher = more cells survive
[1] = compound: CS(=O)(=O)CCNCc1ccc(-c2ccc3ncnc(Nc4ccc(OCc5cccc(F)c5)c(Cl)c4)c3c2)o1 [Lapatinib] + Cc1nc(NC(=O)N2CCC[C@H]2C(N)=O)sc1-c1ccnc(C(C)(C)C(F)(F)F)c1 [Alpelisib] (partner 2 µM)
Method in brief: (§1)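 Lung cancer cell lines, seeded in 1536-well plates, were treated the following day by pin tool with a single drug or with five library-drug doses (not always all listed) in √10 steps on top of a fixed anchor-drug dose. Cells were fixed and nuclei stained in one step after 5 days, and nuclei were counted. Relative viability is the nuclei count for treated wells divided by that for vehicle wells, reported as medians of duplicate plates.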

[2] = compound: CC1=NC=CC(=C1)C2=CC=C(C=C2)CC(=O)NC3=CC=C(C=C3)C4=CN=CC=C4 [Wnt-C59] + CC1(C)CCC(c2ccc(Cl)cc2)=C(CN2CCN(c3ccc(C(=O)NS(=O)(=O)c4ccc(N[C@H](CCN5CCOCC5)CSc5ccccc5)c(S(=O)(=O)C(F)(F)F)c4)cc3)CC2)C1 [Navitoclax] (partner 0.5 µM)
Method in brief: as §1

[3] = compound: CS(=O)(=O)CCNCc1ccc(-c2ccc3ncnc(Nc4ccc(OCc5cccc(F)c5)c(Cl)c4)c3c2)o1 [Lapatinib] + COc1cc2c(Oc3ccc(NC(=O)C4(C(=O)Nc5ccc(F)cc5)CC4)cc3F)ccnc2cc1OCCCN1CCOCC1 [Foretinib] (partner 0.25 µM)
Method in brief: as §1

[4] = compound: CS(=O)(=O)CCNCc1ccc(-c2ccc3ncnc(Nc4ccc(OCc5cccc(F)c5)c(Cl)c4)c3c2)o1 [Lapatinib] + NC(=O)Nc1cc(-c2cccc(F)c2)sc1C(=O)N[C@H]1CCCNC1 [AZD7762] (partner 0.2 µM)
Method in brief: as §1

NCI-H2009
relative viability ([1]; first compound 0.02 µM): 1.12 | relative viability ([1]; first compound 0.06325 µM): 1.16 | relative viability ([1]; first compound 0.2 µM): 1.16 | relative viability ([1]; first compound 0.6325 µM): 1.16 | relative viability ([1]; first compound 2 µM): 1.12 | relative viability ([2]; first compound 0.001 µM): 1.13 | relative viability ([2]; first compound 0.01 µM): 1.23 | relative viability ([2]; first compound 0.03162 µM): 1.14 | relative viability ([2]; first compound 0.1 µM): 1.14 | relative viability ([3]; first compound 0.02 µM): 1.17 | relative viability ([3]; first compound 0.06325 µM): 1.25 | relative viability ([3]; first compound 0.2 µM): 1.26 | relative viability ([3]; first compound 0.6325 µM): 1.22 | relative viability ([3]; first compound 2 µM): 1.17

LC-2-ad
relative viability ([1]; first compound 0.06325 µM): 0.796 | relative viability ([1]; first compound 0.2 µM): 0.856 | relative viability ([1]; first compound 0.6325 µM): 0.877 | relative viability ([1]; first compound 2 µM): 0.73 | relative viability ([2]; first compound 0.001 µM): 0.478 | relative viability ([2]; first compound 0.01 µM): 0.349 | relative viability ([2]; first compound 0.03162 µM): 0.614 | relative viability ([2]; first compound 0.1 µM): 0.406 | relative viability ([4]; first compound 0.06325 µM): 0.562 | relative viability ([4]; first compound 0.2 µM): 0.768 | relative viability ([4]; first compound 0.6325 µM): 0.684 | relative viability ([4]; first compound 2 µM): 0.552 | relative viability ([3]; first compound 0.06325 µM): 0.655 | relative viability ([3]; first compound 0.2 µM): 0.872 | relative viability ([3]; first compound 0.6325 µM): 0.769 | relative viability ([3]; first compound 2 µM): 0.567

NCI-H647
relative viability ([1]; first compound 0.02 µM): 1.01 | relative viability ([1]; first compound 0.06325 µM): 0.779 | relative viability ([1]; first compound 0.2 µM): 1.06 | relative viability ([1]; first compound 0.6325 µM): 1.14 | relative viability ([1]; first compound 2 µM): 1.01 | relative viability ([2]; first compound 0.001 µM): 1.16 | relative viability ([2]; first compound 0.01 µM): 0.972 | relative viability ([2]; first compound 0.03162 µM): 1.12 | relative viability ([2]; first compound 0.1 µM): 0.967 | relative viability ([4]; first compound 0.06325 µM): 0.573 | relative viability ([4]; first compound 0.2 µM): 0.43 | relative viability ([4]; first compound 0.6325 µM): 0.583 | relative viability ([4]; first compound 2 µM): 0.401 | relative viability ([3]; first compound 0.02 µM): 1.06 | relative viability ([3]; first compound 0.06325 µM): 1.16 | relative viability ([3]; first compound 0.2 µM): 1.22 | relative viability ([3]; first compound 0.6325 µM): 1.01 | relative viability ([3]; first compound 2 µM): 1.2

HCC-78
relative viability ([1]; first compound 0.06325 µM): 0.277 | relative viability ([1]; first compound 0.2 µM): 0.305 | relative viability ([1]; first compound 0.6325 µM): 0.26 | relative viability ([1]; first compound 2 µM): 0.15 | relative viability ([2]; first compound 0.001 µM): 0.781 | relative viability ([2]; first compound 0.01 µM): 0.729 | relative viability ([2]; first compound 0.03162 µM): 0.731 | relative viability ([2]; first compound 0.1 µM): 0.452 | relative viability ([4]; first compound 0.06325 µM): 0.528 | relative viability ([4]; first compound 0.2 µM): 0.422 | relative viability ([4]; first compound 0.6325 µM): 0.599 | relative viability ([4]; first compound 2 µM): 0.564 | relative viability ([3]; first compound 0.06325 µM): 0.427 | relative viability ([3]; first compound 0.2 µM): 0.446 | relative viability ([3]; first compound 0.6325 µM): 0.429 | relative viability ([3]; first compound 2 µM): 0.401

Calu-6
relative viability ([1]; first compound 0.02 µM): 0.919 | relative viability ([1]; first compound 0.06325 µM): 0.93 | relative viability ([1]; first compound 0.2 µM): 1.06 | relative viability ([1]; first compound 0.6325 µM): 1.01 | relative viability ([1]; first compound 2 µM): 0.894 | relative viability ([2]; first compound 0.001 µM): 0.801 | relative viability ([2]; first compound 0.01 µM): 0.97 | relative viability ([2]; first compound 0.03162 µM): 0.757 | relative viability ([2]; first compound 0.1 µM): 0.787 | relative viability ([3]; first compound 0.02 µM): 0.86 | relative viability ([3]; first compound 0.06325 µM): 0.852 | relative viability ([3]; first compound 0.2 µM): 0.862 | relative viability ([3]; first compound 0.6325 µM): 0.878 | relative viability ([3]; first compound 2 µM): 0.904

H3255
relative viability ([1]; first compound 0.02 µM): 0.591 | relative viability ([1]; first compound 0.06325 µM): 0.506 | relative viability ([1]; first compound 0.2 µM): 0.643 | relative viability ([1]; first compound 0.6325 µM): 0.635 | relative viability ([1]; first compound 2 µM): 0.232 | relative viability ([2]; first compound 0.001 µM): 0.573 | relative viability ([2]; first compound 0.01 µM): 0.502 | relative viability ([2]; first compound 0.03162 µM): 0.688 | relative viability ([2]; first compound 0.1 µM): 0.558 | relative viability ([4]; first compound 0.02 µM): 0.818 | relative viability ([4]; first compound 0.06325 µM): 0.892 | relative viability ([4]; first compound 0.2 µM): 0.799 | relative viability ([4]; first compound 0.6325 µM): 0.664 | relative viability ([4]; first compound 2 µM): 0.501 | relative viability ([3]; first compound 0.02 µM): 0.405 | relative viability ([3]; first compound 0.06325 µM): 0.789 | relative viability ([3]; first compound 0.2 µM): 0.826 | relative viability ([3]; first compound 0.6325 µM): 0.862 | relative viability ([3]; first compound 2 µM): 0.686

EBC-1
relative viability ([1]; first compound 0.02 µM): 0.826 | relative viability ([1]; first compound 0.06325 µM): 0.766 | relative viability ([1]; first compound 0.2 µM): 0.889 | relative viability ([1]; first compound 0.6325 µM): 0.801 | relative viability ([1]; first compound 2 µM): 0.695 | relative viability ([2]; first compound 0.001 µM): 0.378 | relative viability ([2]; first compound 0.01 µM): 0.405 | relative viability ([2]; first compound 0.03162 µM): 0.431 | relative viability ([2]; first compound 0.1 µM): 0.513 | relative viability ([3]; first compound 0.02 µM): 0.113 | relative viability ([3]; first compound 0.06325 µM): 0.0941 | relative viability ([3]; first compound 0.2 µM): 0.0867 | relative viability ([3]; first compound 0.6325 µM): 0.108 | relative viability ([3]; first compound 2 µM): 0.0963

NCI-H1395
relative viability ([1]; first compound 0.06325 µM): 0.93 | relative viability ([1]; first compound 0.2 µM): 1.18 | relative viability ([1]; first compound 0.6325 µM): 0.978 | relative viability ([1]; first compound 2 µM): 1.03 | relative viability ([2]; first compound 0.001 µM): 1.24 | relative viability ([2]; first compound 0.01 µM): 1.1 | relative viability ([2]; first compound 0.03162 µM): 1.08 | relative viability ([2]; first compound 0.1 µM): 1.32 | relative viability ([4]; first compound 0.06325 µM): 0.364 | relative viability ([4]; first compound 0.2 µM): 0.428 | relative viability ([4]; first compound 0.6325 µM): 0.383 | relative viability ([4]; first compound 2 µM): 0.414 | relative viability ([3]; first compound 0.02 µM): 1.03 | relative viability ([3]; first compound 0.06325 µM): 1.04 | relative viability ([3]; first compound 0.2 µM): 1.01 | relative viability ([3]; first compound 0.6325 µM): 0.929 | relative viability ([3]; first compound 2 µM): 0.917

PC-14
relative viability ([1]; first compound 0.02 µM): 0.823 | relative viability ([1]; first compound 0.06325 µM): 0.915 | relative viability ([1]; first compound 0.2 µM): 0.883 | relative viability ([1]; first compound 0.6325 µM): 0.864 | relative viability ([1]; first compound 2 µM): 0.783 | relative viability ([2]; first compound 0.001 µM): 1 | relative viability ([2]; first compound 0.01 µM): 1.15 | relative viability ([2]; first compound 0.03162 µM): 1.06 | relative viability ([2]; first compound 0.1 µM): 1.02 | relative viability ([4]; first compound 0.02 µM): 0.362 | relative viability ([4]; first compound 0.06325 µM): 0.331 | relative viability ([4]; first compound 0.2 µM): 0.301 | relative viability ([4]; first compound 0.6325 µM): 0.295 | relative viability ([4]; first compound 2 µM): 0.138 | relative viability ([3]; first compound 0.02 µM): 0.864 | relative viability ([3]; first compound 0.06325 µM): 0.913 | relative viability ([3]; first compound 0.2 µM): 1.03 | relative viability ([3]; first compound 0.6325 µM): 0.873 | relative viability ([3]; first compound 2 µM): 0.78

NCI-H522
relative viability ([4]; first compound 0.06325 µM): 0.731 | relative viability ([4]; first compound 0.2 µM): 0.845 | relative viability ([4]; first compound 0.6325 µM): 1.07 | relative viability ([4]; first compound 2 µM): 0.612
